No end group written: not given here.

The test system of test [1] is vector-transfected cells. Description: Intracellular Ca2+ release in vector (mock)-transfected COS-7 cells. Type of test: cell-based. To be noted: mock COS-7 cells. As to the method: A typical protocol for the DEAE-dextran method as applied to COS-7 and HEK293 cells is described as follows. Cells to be used for transfection are split 24 hours prior to the transfection to provide flasks which are 70–80% confluent at the time of transfection. Briefly, 8 μg of receptor DNA plus 8 μg of any additional DNA needed (e.g. Gα protein expression vector, reporter construct, antibiotic resistance marker, mock vector, etc.) are added to 9 ml of complete DMEM plus DEAE-dextran mixture (10 mg/ml in PBS). Cells plated into a T225 flask (sub-confluent) are washed once with PBS and the DNA mixture is added to each flask. The cells are allowed to incubate for 30 minutes at 37° C., 5% CO2. Following the incubation, 36 ml of complete DMEM with 80 μM chloroquine is added to each flask and allowed to incubate an additional 3 hours. The medium is then aspirated and 24 ml of complete medium containing 10% DMSO for exactly 2 minutes and then aspirated. […]
The compounds of interest are diluted in wash buffer (Hank's BSS (without phenol red), 20 mM HEPES, 2.5 mM probenecid) to a 4× final concentration and aliquoted into a clear v-bottom plate (Nunc). […] Compounds are added to the cell plates and responses are measured using the FLIPR™ instrument. The data are then collected and analyzed using the FLIPR™ software and Graphpad Prism. […]

The target of test [2] is T1, SNORF72 (Homo sapiens, UniProt Q9GZQ4, A395T).
T1 construct: expressed in transfected cells; host or cells: COS-7 (transient, DEAE-dextran)
In words: Displacement of [125I]rat NMU-23 binding in SNORF72-transfected COS-7 membranes. To be noted: binding affinity, SNORF72-transfected COS-7 cells (Table 1A); read-out: SNORF72 Avg Ki. As to the method: The specifics of preparing such cell membranes may in some cases be determined by the nature of the ensuing assay but typically involve harvesting whole cells and disrupting the cell pellet by sonication in ice cold buffer (e.g. 20 mM Tris HCl, mM EDTA, pH 7.4 at 4° C.). The resulting crude cell lysate is cleared of cell debris by low speed centrifugation at 200×g for 5 min at 4° C. The cleared supernatant is then centrifuged at 40,000×g for 20 min at 4° C., and the resulting membrane pellet is washed by suspending in ice cold buffer and repeating the high speed centrifugation step. The final washed membrane pellet is resuspended in assay buffer. Protein concentrations are determined by the method of Bradford (1976) using bovine serum albumin as a standard. The membranes may be used immediately or frozen for later use.
Radioligand binding assays were performed by diluting membranes prepared from cells expressing the receptor in 50 mM Tris buffer (pH=7.4 at 0° C.) containing 0.1% bovine serum albumin (Sigma), aprotinin (0.005 mg/ml, Boehringer Mannheim) and bestatin (0.1 mM, Sigma) as protease inhibitors. The final protein concentration in the assay was 12–40 μg/ml. […] The bound ligand was separated from free by filtration through GF/B filters presoaked in 0.5% polyethyleneimine (PEI), using a Tomtec (Wallac) vacuum filtration device. After addition of Ready Safe (Beckman) scintillation fluid, bound radioactivity was quantitated using a Trilux (Wallac) scintillation counter (approximately 40% counting efficiency of bound counts). Data was fit to non-linear curves using GraphPad Prism.
In this manner, agonist or antagonist compounds that bind to the receptor may be identified as they inhibit the binding of the labeled ligand to the membrane protein of cells expressing the said receptor. Non-specific binding was defined as the amount of radioactivity remaining after incubation of membrane protein in the presence of 100 nM of the unlabeled peptide corresponding to the radioligand used. In equilibrium saturation binding assays membrane preparations or intact cells transfected with the receptor are incubated in the presence of increasing concentrations of the labeled compound to determine the binding affinity of the labeled ligand.

The target of test [3] is T2, SNORF62 (Homo sapiens, UniProt Q9HB89).
T2 sequence (Q9HB89 1-426): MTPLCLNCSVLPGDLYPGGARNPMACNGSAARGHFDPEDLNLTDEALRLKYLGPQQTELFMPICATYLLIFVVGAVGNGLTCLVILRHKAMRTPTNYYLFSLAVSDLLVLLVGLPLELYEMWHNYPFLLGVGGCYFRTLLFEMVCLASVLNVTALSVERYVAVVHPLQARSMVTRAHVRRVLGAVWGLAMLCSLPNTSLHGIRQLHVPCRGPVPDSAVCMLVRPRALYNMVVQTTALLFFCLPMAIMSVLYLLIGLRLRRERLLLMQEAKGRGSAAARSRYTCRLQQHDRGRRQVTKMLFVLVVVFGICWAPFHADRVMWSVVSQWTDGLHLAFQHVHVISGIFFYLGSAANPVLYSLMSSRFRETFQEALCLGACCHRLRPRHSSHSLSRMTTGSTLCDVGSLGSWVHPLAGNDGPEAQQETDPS
In words: Intracellular Ca2+ release (FLIPR) in SNORF62-transfected COS-7 cells. Also noted: The SNORF62 cDNA codes for a protein of 426 amino acids; expressed in transfected cells; host or cells: COS-7 (transient, DEAE-dextran). The test is classed as cell-based.

Take “FRVDEEFQSPFASQSRGYFLFRPRN-NH2 [human NMU-25, FRVDEEFQSPFASQSRGYFLFRPRN—NH2]”: in test [1], the “effect on intracellular Ca2+ release in vector-transfected cells” value is listed as “no significant effect”. Moreover, the inhibition constant (Ki) in test [2] came to 3 nM. Moreover, in test [3] (pertussis toxin 100 ng/ml for 18-20 hours, n=2, data not shown), the “Ca2+ release response following pretreatment with pertussis toxin” value is recorded as “present”. Further, it took 4 ± 1.3 nM to reach a half-maximal effect in test [3] (stimulation of Ca2+ release, SNORF62-transfected COS-7 cells, n = 2-7 (Table 1A)) (EC50).

As a reminder, the Ki is a dissociation constant, usually derived from enzyme kinetics or from competition with a known ligand. By EC50 is commonly meant the concentration needed to bring the measured effect to its halfway point. A lower EC50 goes with an effect from little substance.

The values above are taken from US7029857B1, “Processes for obtaining compounds employing SNORF72 receptors” (H. Lundbeck A/S, priority 1999, dated 2006).
